The values below come from patent US7638122B2, “Stat3 antagonists and their use as vaccines against cancer” (University of South Florida, priority 2003, dated 2009).

The subject of this assay is bone marrow progenitor cells. Description: DC differentiation/maturation from bone marrow progenitor cells in the presence of tumor supernatants. Type of assay: cell-based, mouse. To be noted: supernatant from CT26 tumor cells (5%), 375 μM peptide, 6 days. As to the method: FIG. 7. Inhibition of Stat activity in dendritic cells alleviates the negative effect of tumor-secreted factors on DC differentiation. a, Stat activation in DCs treated for 1 hour with recombinant VEGF (100 ng/ml) or incubated for 15 min. with various supernatants as indicated. […] Bone marrow progenitor cells were cultured for 6 days in DC medium alone or in the presence of supernatant from CT26 tumor cells (5%) plus 375 μM of anti-Stat3 (PY*LKTK) (SEQ ID NO: 11); or control (PYLKTK) (SEQ ID NO: 12); peptide.
Preparation of bone marrow progenitor cells (BMPCs) and generation of bone marrow-derived mature DCs were carried out according to a previously described protocol (Lu et al., 2000, J. Exp. Med. 191: 541-550). Relatively mature DCs were obtained by incubating, BMPCs in medium containing GM-CSF and IL-4 for 6 days. […] Following 48 hours culture, suspension cells were collected and analyzed for IL-12 secretion by ELISA (R & D) and expression of DC-surface markers (CD86, CD40 and MHC Class II) by flow cytometry. All antibodies were purchased from PharMingen and surface expression was analyzed using a FACScan cytofluorometer (Becton Dickinson) as previously described, (Lu et al., 2000, supra). […] T-cell proliferation was measured by [^3H]-thymidine incorporation over 18 hours.

Square brackets hold non-standard residues; d marks the D form. Ends that are not written are not given here. pY = N[C@@H](Cc1ccc(OP(=O)(O)O)cc1)C(=O)O

For the substance PY*LKTK (P[pY]LKTK), the “effect of tumor-derived factors on DC differentiation” value is “relieve the negative effect of tumor-derived factors on DC differentiation”.
